Experimental data as given in US9637451B2, “Indole compound” (ASTELLAS PHARMA INC., priority 2014, dated 2017).

Tests used:
human MT1 receptor = biological target: T1, human MT1 receptor (Homo sapiens, UniProt P48039); experiment: Activation of human MT1 receptor in receptor-expressing cells, intracellular Ca2+ by FLIPR; format: cell-based; details: for EC50: HEK293EBNA1 cells stably expressing human MT1 and Gq/i chimeric G protein, Ca2+ FLIPR; for Emax: maximum reaction by ramelteon taken as 100%
T1 construct: expressed in transfected cells

human MT2 receptor = biological target: T2, human MT2 receptor (Homo sapiens, UniProt P49286); experiment: Activation of human MT2 receptor in receptor-expressing cells, intracellular Ca2+ by FLIPR; format: cell-based; details: for EC50: HEK293 cells stably expressing human MT2 and Gq/i chimeric G protein, Ca2+ FLIPR; for Emax: maximum reaction by ramelteon taken as 100%
T2 construct: expressed in transfected cells
T2 sequence (P49286 1-362): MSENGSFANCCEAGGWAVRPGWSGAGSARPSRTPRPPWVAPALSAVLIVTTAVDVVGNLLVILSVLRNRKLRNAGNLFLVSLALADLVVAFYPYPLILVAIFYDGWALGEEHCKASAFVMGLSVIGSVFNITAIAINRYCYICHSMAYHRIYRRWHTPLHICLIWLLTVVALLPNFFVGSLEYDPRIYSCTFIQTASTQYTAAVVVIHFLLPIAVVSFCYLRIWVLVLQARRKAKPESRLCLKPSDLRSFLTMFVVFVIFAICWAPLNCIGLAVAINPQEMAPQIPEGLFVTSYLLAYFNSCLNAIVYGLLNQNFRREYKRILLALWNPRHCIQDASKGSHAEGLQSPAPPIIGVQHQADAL

[1] = CSF-to-plasma unbound concentration ratio in rat after intravenous administration; format: in vivo; details: CSF and plasma (unbound), iv, 15 minutes after intravenous administration
Description: A test compound (100 μg/mL, 50% acetonitrile solution) at 1% (v/v) with respect to the amount of the plasma was added to rat plasma, and dispensed to a sample for a supernatant and a sample for the plasma. The sample for a supernatant was ultracentrifuged at 436,000×g and 37° C. for 140 minutes, and the sample for the plasma was incubated at 37° C. for 140 minutes.
After 140 minutes, the sample for a supernatant after the ultracentrifugation and the sample for the plasma were taken, and mixed with the blank plasma or the blank supernatant, respectively. Acetonitrile including an internal standard material was added to each of the samples with the removal of protein, and after the centrifugation at 2150×g and 4° C. for 10 minutes the supernatant was injected into LC-MS/MS.
The unbound fraction in the plasma was calculated by the following equation.
To the plasma of a rat was added a test compound (0.2 mM, 50% acetonitrile solution) in an amount corresponding to 1% (v/v) of the plasma amount, and 200 μL of obtained plasma sample was filled into a plasma chamber of a RED device insert. A buffer chamber was filled with 350 μL of PBS, followed by performing equilibrium dialysis by stirring in a CO2 incubator at 37° C. for 16 hours. The sample after the completion of the equilibrium dialysis was recovered and the volume of the plasma sample was measured. To the plasma sample after the completion of the equilibrium dialysis were added PBS, a 20 mM ammonium formate buffer, and acetonitrile including an internal standard material. Similarly, to the PBS sample after the completion of the equilibrium dialysis was added a blank plasma, a 20 mM ammonium formate buffer, and acetonitrile including an internal standard material. This sample was left to stand at 4° C. for 30 minutes and then centrifuged 1500×g for 10 minutes, and the supernatant was measured by LC-MS/MS. The unbound fraction in the plasma was calculated by the following equation. fp=Cf/{(Cp−Cf)(V/V0)+Cf}
At 15 minutes after intravenously administration of the test compound to the rats, the plasma and CSF were collected. A 50% acetonitrile solution and an acetonitrile including internal standard material were added to the collected plasma or CSF. After centrifuging this sample at 4° C. and 2150×g for 10 minutes, the supernatant was measured by LC-MS/MS, and the total concentration of the test compound in the plasma (Cplasma,t) and the concentration of the test compound in CSF (CCSF) were obtained. The unbound concentration in the plasma (Cplasma,u) of the test compound and the CSF-to-plasma unbound concentration ratio (Kp,uu,CSF) of the test compound was calculated by the following equation.
(§1) The Kp,uu,CSF values and the Kp,brain values of ramelteon and some Example compounds of the present invention are shown in Table 4. Ex represents Example No. of the test compound. Unless otherwise specified, the Kp,uu,CSF was calculated using the fp values determined by an ultracentrifugation method. Further, N.T. represents Not Tested.
(Ramelteon represents the values of Kp,uu,CSF after 10 minutes after the intravenous administration. Further, the Kp,uu,CSF of Examples 37 and 38 was calculated using the fp values determined by an equilibrium dialysis method. In addition, N.D. denotes the concentration of the test compound in CSF that is no higher than the detection limit.)

[2] = Brain-to-plasma concentration ratio in rat after intravenous administration; format: in vivo; details: brain and plasma, 15 minutes after intravenous administration
Description: At 15 minutes after intravenously administration of the test compound to the rats, the plasma and brain were collected. A 50% acetonitrile solution and an acetonitrile including internal standard material were added to the collected plasma. The collected brain was added to a 2-fold volume of PBS and homogenized. A 50% acetonitrile solution and an acetonitrile including internal standard material were added to the brain homogenate. The sample was centrifuged at 4° C. and 2150×g for 10 minutes, the supernatant was measured by LC-MS/MS, and the total concentration of the test compound in the brain (Cbrain) and the total concentration of the test compound in the plasma (Cplasma,t) were obtained. The brain-to-plasma concentrations ratio (Kp,brain) was calculated by the following equation.
as §1

[3] = fp by ultracentrifugation method

T1 sequence (P48039 whole entry): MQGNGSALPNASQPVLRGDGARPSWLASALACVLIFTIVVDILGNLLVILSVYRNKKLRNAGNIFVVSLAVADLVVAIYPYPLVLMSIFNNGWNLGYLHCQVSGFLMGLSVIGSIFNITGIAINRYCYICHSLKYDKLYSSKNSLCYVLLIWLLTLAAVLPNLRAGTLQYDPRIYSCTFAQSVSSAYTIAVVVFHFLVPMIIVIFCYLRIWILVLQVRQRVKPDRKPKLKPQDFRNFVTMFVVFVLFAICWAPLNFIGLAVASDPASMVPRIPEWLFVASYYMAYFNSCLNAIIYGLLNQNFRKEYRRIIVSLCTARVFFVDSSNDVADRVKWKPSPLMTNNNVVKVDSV

Compound	EC50 (human MT1 receptor) [nM]	Emax (human MT1 receptor) [%]	EC50 (human MT2 receptor) [nM]	Emax (human MT2 receptor) [%]	Kp uu at 0.25 h [1, 3]	Kp at 0.25 h [2]	Kp uu at 0.25 h ([1]; fp by equilibrium dialysis method)
CC(=O)NCCc1c[nH]c2ccc(OCCn3ccc(C(F)(F)F)n3)cc12 [Example 4, N-[2-(5-{2-[3-(trifluoromethyl)-1H-pyrazol-1-yl]ethoxy}-1H-indol-3-yl)ethyl]acetamide]	18	102	33	102	0.11	0.29	–
COc1ccc(OCCOc2ccc3[nH]cc(CCNC(C)=O)c3c2)cn1 [Example 5, N-[2-(5-{2-[(6-methoxypyridin-3-yl)oxy]ethoxy}-1H-indol-3-yl)ethyl]acetamide]	13	89	150	48	0.1	0.089	–
CC(=O)NCCc1c(C)[nH]c2ccc(OCCOc3ccn(C)n3)cc12 [Example 7, N-[2-(2-methyl-5-{2-[(1-methyl-1H-pyrazol-3-yl)oxy]ethoxy}-1H-indol-3-yl)ethyl]acetamide]	18	90	22	125	0.14	0.03	–
CCC(=O)NCCc1c[nH]c2ccc(OCCOc3ccn(C)n3)cc12 [Example 8, N-[2-(5-{2-[(1-methyl-1H-pyrazol-3-yl)oxy]ethoxy}-1H-indol-3-yl)ethyl]propanamide]	9.1	93	12	107	0.08	0.04	–
CNC(=O)NCCc1c(C)[nH]c2ccc(OCCOc3ccnc(C)c3)cc12 [Example 9, 1-methyl-3-[2-(2-methyl-5-{2-[(2-methylpyridin-4-yl)oxy]ethoxy}-1H-indol-3-yl)ethyl]urea]	9.9	84	32	116	–	0.01	–
CNC(=O)NCCc1c[nH]c2ccc(OCCOc3ccc(OC)nc3)cc12 [Example 23, 1-[2-(5-{2-[(6-methoxypyridin-3-yl)oxy]ethoxy}-1H-indol-3-yl)ethyl]-3-methylurea]	21	87	54	68	0.04	0.03	–
CNC(=O)NCCc1c[nH]c2ccc(OCCOc3cncc(Cl)c3)cc12 [Example 56]	15	92	9.9	125	–	–	–
CC(=O)NCCc1c[nH]c2ccc(OCCOc3cncc(F)c3)cc12 [Example 57]	12	94	13	114	–	–	–
CC(=O)NCCc1c[nH]c2ccc(OCCOc3nccc(C(F)(F)F)n3)cc12 [Example 62]	11	101	16	118	–	–	–
CC(=O)NCCc1c[nH]c2ccc(OCCOc3ccon3)cc12 [Example 63]	9.7	90	9	105	–	–	–

Stronger by EC50 (human MT1 receptor), values ahead:

EC50 (human MT1 receptor) [nM]	Emax (human MT1 receptor) [%]	EC50 (human MT2 receptor) [nM]	Emax (human MT2 receptor) [%]	Kp uu at 0.25 h [1, 3]	Kp at 0.25 h [2]	Kp uu at 0.25 h ([1]; fp by equilibrium dialysis method)	Compound
8.3	95	21	117	0.07	0.02	–	CNC(=O)NCCc1c(C)[nH]c2ccc(OCCOc3ccn(C)n3)cc12 [Example 10, 1-methyl-3-[2-(2-methyl-5-{2-[(1-methyl-1H-pyrazol-3-yl)oxy]ethoxy}-1H-indol-3-yl)ethyl]urea]
0.71	107	2.4	99	0.05	–	–	CC(=O)NCCc1c[nH]c2ccc(OCCOc3cccc(C)n3)cc12 [Example 11, N-[2-(5-{2-[(6-methylpyridin-2-yl)oxy]ethoxy}-1H-indol-3-yl)ethyl]acetamide]
4.3	105	7	110	0.03	–	–	CC(=O)NCCc1c(C)[nH]c2cc(F)c(OCCOc3ccn(C)n3)cc12 [Example 13, N-[2-(6-fluoro-2-methyl-5-{2-[(1-methyl-1H-pyrazol-3-yl)oxy]ethoxy}-1H-indol-3-yl)ethyl]acetamide]
8.4	106	12	110	0.04	–	–	CCC(=O)NCCc1c(C)[nH]c2ccc(OCCn3ccc(C)n3)cc12 [Example 15, N-(2-{2-methyl-5-[2-(3-methyl-1H-pyrazol-1-yl)ethoxy]-1H-indol-3-yl}ethyl)propanamide]
7.7	89	21	123	0.11	0.03	–	CC(=O)NCCc1c(C)[nH]c2ccc(OCCOc3ccnc(C)c3)cc12 [Example 18, N-[2-(2-methyl-5-{2-[(2-methylpyridin-4-yl)oxy]ethoxy}-1H-indol-3-yl)ethyl]acetamide]
1.4	104	28	88	0.01	–	–	CNC(=O)NCCc1c(C)[nH]c2ccc(OCCOc3ccc(OC)nc3)cc12 [Example 31, 1-[2-(5-{2-[(6-methoxypyridin-3-yl)oxy]ethoxy}-2-methyl-1H-indol-3-yl)ethyl]-3-methylurea]
2.1	105	7.1	104	–	0.01	0.08	CC(=O)NC[C@H](C)c1c[nH]c2cc(F)c(OCCOc3ccn(C)n3)cc12 [Example 37, N-[(2R)-2-(6-fluoro-5-{2-[(1-methyl-1H-pyrazol-3-yl)oxy]ethoxy}-1H-indol-3-yl)propyl]acetamide]
1.2	99	3.4	99	–	–	–	CNC(=O)NCCc1c[nH]c2ccc(OCCOc3cccc(C)n3)cc12 [Example 58]
6.6	120	9.6	99	–	–	–	CC(=O)NCCc1c[nH]c2ccc(OCCOc3ccnc(C)c3)cc12 [Example 59]
7.2	94	9.2	104	–	–	–	CC(=O)NCCc1c[nH]c2ccc(OCCOc3cccc(C4CC4)n3)cc12 [Example 60]
6.9	84	5.4	92	–	–	–	CCCc1cccc(OCCOc2ccc3[nH]cc(CCNC(C)=O)c3c2)n1 [Example 61]
1.6	102	2.1	116	–	–	–	CC(=O)NCCc1c[nH]c2ccc(OCCOc3ccccn3)cc12 [Example 64]
